Reference: article PMC7323870 (Bioorganic & medicinal chemistry letters, 2010)

What follows are molecules tested against HIV IN (Human immunodeficiency virus type 1 group M subtype B, UniProt P04585) (assay: HIV IN 3′ processing).
Type: biochemical
For CNC(=O)c1nc(C)n(Cc2ccc(F)cc2)c(=O)c1O [compound 6], the IC50 was > 333 µM.
For CNC(=O)c1nc(Cc2ccc(F)cc2)n(C)c(=O)c1O [compound 11], the IC50 was > 333 µM.
O=C(O)c1nc(Cc2ccc(F)cc2)[nH]c(=O)c1O [compound 10] was tested, and the IC50 was > 333 µM.
For CNC(=O)c1nc(Cc2ccc(F)cc2)[nH]c(=O)c1O [compound 7], the IC50 was > 333 µM.
COCCNC(=O)c1nc(Cc2ccc(F)cc2)[nH]c(=O)c1O [compound 8] was tested, and the IC50 was > 333 µM.
For CN(C)CCCNC(=O)c1nc(Cc2ccc(F)cc2)[nH]c(=O)c1O [compound 9], the IC50 was > 333 µM.
